# Results: PubChem BioAssay AID2060508 (Molecular Pharmacology Branch, DTP, NCI, 2025)
# Tested on: 454973-116-R2-J3-PDC spheroids, viability, % test/control
# Experiment: Anticancer human tumor 454973-116-R2-J3-PDC patient-derived pancreatic carcinoma cell line growth inhibition [GQUAD]
# Details: spheroids with HUVEC and MSC; for IC50: curve of first compound; for viability, T/C: stronger effect = lower value
# How it was run: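 Viability of tumor cells grown as complex spheroids with endothelial and stromal cells, exposed to drug combinations. Top concentration at or near clinical Cmax (else 10 microM), diluted in half-log increments.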
# [1] = second compound 0.0316 µM, first compound 0.0316 µM
# [2] = second compound 0.0316 µM, first compound 0.316 µM
# [3] = second compound 0.1 µM, first compound 0.0316 µM
# [4] = second compound 0.1 µM, first compound 0.316 µM
# [5] = second compound 0.316 µM, first compound 0.0316 µM
# [6] = second compound 0.316 µM, first compound 0.316 µM
# [7] = second compound 1 µM, first compound 0.0316 µM
# [8] = second compound 1 µM, first compound 0.316 µM
# [9] = second compound 3.16 µM, first compound 0.0316 µM
# [10] = second compound 3.16 µM, first compound 0.316 µM
# [11] = second compound 10 µM, first compound 0.0316 µM
# [12] = second compound 10 µM, first compound 0.316 µM
# 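Note: spheroids exposed to compounds for seven days.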
# 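Throughout, for viability, T/C: 100% = DMSO vehicle control viability.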
compound,measurement,setting,value
CC(=O)O[C@H]1C(=O)[C@@]2(C)[C@H]([C@H](OC(=O)c3ccccc3)[C@]3(O)C[C@H](OC(=O)[C@H](O)[C@@H](NC(=O)c4ccccc4)c4ccccc4)C(C)=C1C3(C)C)[C@]1(OC(C)=O)CO[C@@H]1C[C@@H]2O + CN(C)c1ccc(Nc2c3ccc(NC(=O)CCN4CCCC4)cc3nc3cc(NC(=O)CCN4CCCC4)ccc23)cc1,IC50,second compound 0.0316 µM,< 31.6 nM
same,IC50,second compound 0.1 µM,< 31.6 nM
same,IC50,second compound 0.316 µM,< 31.6 nM
same,IC50,second compound 1 µM,< 31.6 nM
same,IC50,second compound 3.16 µM,< 31.6 nM
same,IC50,second compound 10 µM,< 31.6 nM
same,"viability, T/C",[1],16.5%
same,"viability, T/C","second compound 0.0316 µM, first compound 0.1 µM",8.43%
same,"viability, T/C",[2],9.5%
same,"viability, T/C","second compound 0.0316 µM, first compound 1 µM",7.36%
same,"viability, T/C","second compound 0.0316 µM, first compound 3.16 µM",8.24%
same,"viability, T/C","second compound 0.0316 µM, first compound 10 µM",10.1%
same,"viability, T/C",[3],16%
same,"viability, T/C","second compound 0.1 µM, first compound 0.1 µM",11.7%
same,"viability, T/C",[4],7.58%
same,"viability, T/C","second compound 0.1 µM, first compound 1 µM",6.11%
same,"viability, T/C","second compound 0.1 µM, first compound 3.16 µM",8.15%
same,"viability, T/C","second compound 0.1 µM, first compound 10 µM",7.98%
same,"viability, T/C",[5],14%
same,"viability, T/C","second compound 0.316 µM, first compound 0.1 µM",10%
same,"viability, T/C",[6],8.64%
same,"viability, T/C","second compound 0.316 µM, first compound 1 µM",7.04%
same,"viability, T/C","second compound 0.316 µM, first compound 3.16 µM",8.84%
same,"viability, T/C","second compound 0.316 µM, first compound 10 µM",10.1%
same,"viability, T/C",[7],16%
same,"viability, T/C","second compound 1 µM, first compound 0.1 µM",8.67%
same,"viability, T/C",[8],6.76%
same,"viability, T/C","second compound 1 µM, first compound 1 µM",7.25%
same,"viability, T/C","second compound 1 µM, first compound 3.16 µM",6.69%
same,"viability, T/C","second compound 1 µM, first compound 10 µM",9.71%
same,"viability, T/C",[9],15.5%
same,"viability, T/C","second compound 3.16 µM, first compound 0.1 µM",9.08%
same,"viability, T/C",[10],8.56%
same,"viability, T/C","second compound 3.16 µM, first compound 1 µM",6.91%
same,"viability, T/C","second compound 3.16 µM, first compound 3.16 µM",6.53%
same,"viability, T/C","second compound 3.16 µM, first compound 10 µM",8.28%
same,"viability, T/C",[11],21.6%
same,"viability, T/C","second compound 10 µM, first compound 0.1 µM",12.1%
same,"viability, T/C",[12],8.85%
same,"viability, T/C","second compound 10 µM, first compound 1 µM",7.09%
same,"viability, T/C","second compound 10 µM, first compound 3.16 µM",8.15%
same,"viability, T/C","second compound 10 µM, first compound 10 µM",8.56%
CC[C@@]1(O)C(=O)OCc2c1cc1n(c2=O)Cc2cc3c(CN(C)C)c(O)ccc3nc2-1 + CN(C)c1ccc(Nc2c3ccc(NC(=O)CCN4CCCC4)cc3nc3cc(NC(=O)CCN4CCCC4)ccc23)cc1,IC50,second compound 0.0316 µM,45.3 nM
same,IC50,second compound 0.1 µM,39.5 nM
same,IC50,second compound 0.316 µM,30.3 nM
same,IC50,second compound 1 µM,32.7 nM
same,IC50,second compound 3.16 µM,29.9 nM
same,IC50,second compound 10 µM,28.8 nM
same,"viability, T/C","second compound 0.0316 µM, first compound 0.000999 µM",97.5%
same,"viability, T/C","second compound 0.0316 µM, first compound 0.00316 µM",97.7%
same,"viability, T/C","second compound 0.0316 µM, first compound 0.00999 µM",99.5%
same,"viability, T/C",[1],64%
same,"viability, T/C","second compound 0.0316 µM, first compound 0.0999 µM",18.2%
same,"viability, T/C",[2],20.1%
same,"viability, T/C","second compound 0.1 µM, first compound 0.000999 µM",111%
same,"viability, T/C","second compound 0.1 µM, first compound 0.00316 µM",102%
same,"viability, T/C","second compound 0.1 µM, first compound 0.00999 µM",88.4%
same,"viability, T/C",[3],60.6%
same,"viability, T/C","second compound 0.1 µM, first compound 0.0999 µM",18.2%
same,"viability, T/C",[4],20.5%
same,"viability, T/C","second compound 0.316 µM, first compound 0.000999 µM",101%
same,"viability, T/C","second compound 0.316 µM, first compound 0.00316 µM",111%
same,"viability, T/C","second compound 0.316 µM, first compound 0.00999 µM",82.1%
same,"viability, T/C",[5],51.3%
same,"viability, T/C","second compound 0.316 µM, first compound 0.0999 µM",23.4%
same,"viability, T/C",[6],23%
same,"viability, T/C","second compound 1 µM, first compound 0.000999 µM",99.3%
same,"viability, T/C","second compound 1 µM, first compound 0.00316 µM",89.8%
same,"viability, T/C","second compound 1 µM, first compound 0.00999 µM",87.1%
same,"viability, T/C",[7],51.7%
same,"viability, T/C","second compound 1 µM, first compound 0.0999 µM",20.3%
same,"viability, T/C",[8],21.7%
same,"viability, T/C","second compound 3.16 µM, first compound 0.000999 µM",98.7%
same,"viability, T/C","second compound 3.16 µM, first compound 0.00316 µM",82.4%
same,"viability, T/C","second compound 3.16 µM, first compound 0.00999 µM",83%
same,"viability, T/C",[9],47.7%
same,"viability, T/C","second compound 3.16 µM, first compound 0.0999 µM",27.6%
same,"viability, T/C",[10],23.4%
same,"viability, T/C","second compound 10 µM, first compound 0.000999 µM",83.9%
same,"viability, T/C","second compound 10 µM, first compound 0.00316 µM",71.8%
same,"viability, T/C","second compound 10 µM, first compound 0.00999 µM",61.5%
same,"viability, T/C",[11],53.6%
same,"viability, T/C","second compound 10 µM, first compound 0.0999 µM",31%
same,"viability, T/C",[12],25.7%
